Measurements from patent US20110224197A1, “PYRIMIDINES AND PYRIDINES USEFUL AS INHIBITORS OF PROTEIN KINASES” (Vertex Pharmaceuticals Incorporated, priority 2008, published 2011).

What was measured:
[1] = system: embolic occlusion of the middle cerebral artery (MCAO) in the rat; test: Post Stroke Recovery Model I (embolic MCAO); format: in vivo
Experimental: This study investigates the effect of compounds on volume of cerebral infarction, cell proliferation, and functional recovery after embolic occlusion of the middle cerebral artery (MCAO) in the rat.
Ten Rats, subjected to MCAO (Zhang R L, et. al., 1997 # 1), were randomly assigned to either Vehicle or Compound I-3 after MCAO. The treatment was administered once daily orally starting 24 hours after MCAo for 14 days. 5-bromo-2-deoxyuridine (BrdU, Sigma; 100 mg/kg, i.p.) is administered at 1 day after MCAO, and consecutively for 6 days. Functional assessments are performed before MCAO and at day 1, day 7 and day 14 after MCAO by an investigator who is blinded to the study. The assessment included Neurological Severity Score (mNSS) and Adhesive removal test score, described below. A total of twenty rats are sacrificed at 14 days after MCAO. Three contralateral hemispheres of each group are assigned for analysis. Volume of infarction and cell proliferation in the ipsilateral subventricular zone (SVZ) are measured.
Rats are tested for left forelimb somatosensory deficit with the adhesive removal test (Schallert T, et. al., 1984 # 3). Each animal received 3 trials by placing round strips of packing tape (1.2 cm in diameter) at each testing day and the mean time (seconds) required to remove stimuli from the left forelimb is was recorded.
All the animals are anesthetized with ketamine (44 mg/kg IM) and xylazine (13 mg/kg IM) and sacrificed at fourteen days after MCA occlusion. […] Infarct volumes are measured using a Global Lab Image analysis program (Data Translation). The area of both hemispheres and the area containing the ischemic neuronal damage (mm^2) are calculated by tracing the area on the computer screen. The lesion volume […] is determined by multiplying the appropriate area by the section interval thickness (Chen H, et al., 1992, # 4). […]
To visualize specificity of the immunohischemical reaction, immunostaining of BrdU (a monoclonal antibody against BrdU, 1:100, DAK) is employed. […] BrdU-immunoreactive nuclei in the SVZ are counted on a computer monitor to improve visualization. […]

GSK-3 α/β pTYR = test: pTYR biomarker analysis in brain, Post Stroke Model I; format: in vivo, rat; conditions: all doses, termination of study
Experimental: To track the activity of Compound I-3 in the CNS of rats subjected to MCAO, brains were removed and protein lysate was obtained as described above from both vehicle treated and compound treated animals at the termination of the study. Lysates were analyzed by Western blot and probed for GSK-3 α/β pTYR levels.

GSK-3α/β pTYR = test: Biomarker for leukocytopenia: pTYR in PBMC (Western blot); format: in vivo, mice; conditions: all doses
Experimental: To track the activity of Compound (I-3) in mice subjected to 5-FU treatment, peripheral blood was removed at time of sacrifice from both compound and vehicle-treated mice and a protein lysate was obtained from peripheral blood mononuclear cells (PBMC) after removal of red blood cells. Lysates were analyzed by Western blot and probed for GSK-3α/β pTYR levels.

[2] = system: 5-FU treated C57BL/6 mice; test: Leukocytopenia animal model (5-FU); format: in vivo
Excerpt: This study evaluates the hematopoietic recovery of peripheral blood and bone marrow cells following treatment with 5-FU (a myeloablative reagent) and compares the recoveries of various doses of the test compound with a cytokine known to enhance recovery rhG-CSF. The introduction of the chemotherapeutic agent causes a decrease in the peripheral blood white blood cell count and in particular, the neutrophil count. […] 5-FU acts by killing all the dividing cells, sparing primitive stem cells which are relatively quiescent and are thus not impacted by the treatment. Following treatment, primitive cells are recruited to proliferate and differentiate, thus re-establishing normal peripheral blood and femoral cell counts. This model may be used to evaluate compounds that could facilitate the recruitment and proliferation of the primitive cells and assess the kinetics of recovery of bone marrow as well as mature cell populations (white blood cells, red blood cells and platelets) in the blood.
One hundred and five C57BL/6 mice at 6-8 weeks of age were purchased from Jackson Labs. All, with the exception of the 4 untreated control mice were treated with 150 mg/kg 5-Fluorouracil (5-FU) interperitoneal (ip) at day 0. The four untreated mice (Group 1) were sacrificed on day 12 and they represent the “normal variability in blood and cell counts”. The 5-FU treated mice were divided equally into 4 distinct groups (Groups 2, 3, 4 and 5). On day −1 (the day before treatment with 5-FU) through to day 12, the mice in group 2 were treated at 8 a.m. and 6 p.m. with just solvent (20% PEG 400/10% Vitamin E TPGS/70% water) and served as the solvent control for groups 4 and 5.
Four mice from this group were sacrificed on days 4, 6, 8, 10 and 12 following the final dose of solvent the morning before sacrificing. On days 1 through 4, the mice in group three were dosed with 50 ug/kg rhG-CSF twice daily with 6 hours separating the daily doses. Four mice from this group were also sacrificed on days 4, 6, 8, 10 and 12. For treatment of test compound, groups 4 and 5, dosing was done as indicated above with the solvent control (2 times daily at 8 am and 6 pm) with compound that was prepared fresh each day.
Compound I-3 was weighed out into 13 vials and an appropriate amount of solvent added to achieve a final concentration for dosing at 30 mg/Kg (high dose). The compound was solubilized by sonication in solvent for 2-3 minutes and then 30% of the volume removed and diluted 1:3 with solvent to prepare compound for dosing at 10 mg/Kg (low dose). This was done daily and delivered to the animal technologist at 1 pm for the evening and next morning dosing. The unused compound was returned and frozen the next day when the freshly prepared sample for the next doses delivered. On days 1 through 12, mice in group 4 received the low dose of compound ([…]) and mice in group 5 received the high dose of compound (30 mg/Kg) twice daily. Four mice were sacrificed for each group on days 4, 6, 8, 10 and 12.
Each time mice were sacrificed from any of the groups, peripheral blood was collected in EDTA microtainer tubes by cardiac puncture. Approximately 400 uL of the blood was sent for analysis of blood indices (WBC, ANC, platelets, hemoglobin and hematocrit) at a central veterinary service laboratory using an automated system. The remainder of the blood was sent to STI where the plasma was separated by centrifugation at 8000 r.p.m. for 10 minutes and stored at −80° C. for future bioassays. Both femurs were also harvested and cells extracted and processed. The femoral cells were counted, red blood cells lysed and the cells subsequently prepared (at 5×10^6 cells/100 uL in Laemmli buffer and an equivalent unprocessed cell pellet) and stored at −80° C. for future protein analyses. Also on day 12, when the animals were sacrificed, their livers were removed and stored in 10% neutral formalin for future analysis. […]

β-catenin [3] = test: Biomarker for leukocytopenia: β-catenin in PBMC; format: in vivo, mice; conditions: all doses
β-catenin [4] = test: β-catenin in brain, Post Stroke Model I; format: in vivo, rat; conditions: all doses
[5] = system: transient middle cerebral artery occlusion (MCAO) in rats; conditions: after transient MCAO; cited from earlier work
[6] = once daily orally starting 24 hours after MCAo for 14 days

Molecule: Cc1nc(-c2ccccc2Cl)nc(Nc2n[nH]c3ccc(F)cc23)c1C [Compound I-3]
- number of BrdU positive cells in the ipsilateral SVZ compared with vehicles ([1]; 14 days after MCAO): significantly (p<0.05) increased
- adhesive removal test compared with vehicle group [1, 6]: significant (p<0.05) improvement
- mNSS test compared with vehicle group [1, 6]: significant (p<0.05) improvement
- pTYR signal compared to vehicle treated rats (GSK-3 α/β pTYR): significant reduction
- pTYR signal compared to vehicle treated animals (GSK-3α/β pTYR): significant reduction
- WBC nadir (lowest cell count observed) ([2]; 5-FU + Compound I-3 10 mg/Kg twice daily): 4 days
- WBC nadir (lowest cell count observed) ([2]; 5-FU + Compound I-3 30 mg/Kg twice daily): 4 days
- kinetics of the WBC and ANC recovery ([2]; 5-FU + high dose (30 mg/Kg twice daily)): enhanced
- Bone marrow cellularity: recovery to normal values ([2]; 5-FU + high dose of test compound): 10 days
- bone marrow cell counts versus 5-FU and rhG-CSF ([2]; 5-FU and high dose, day 8): significantly higher
- bone marrow cellularity nadir ([2]; 5-FU and high dose, versus other groups): did not have as low a nadir as other groups
- Platelet counts ([2]; 5FU + high dose, day 8): soared above the reference ranges
- kinetics of bone marrow cellular recovery ([2]; Group 5 (high dose) versus Groups 3 and 4): fastest
- WBC and ANC recovery compared to 5-FU and rhG-CSF ([2]; high dose): comparable
- WBC and ANC recovery compared to 5-FU and solvent control ([2]; high dose, days 8 and 10): significantly increased
- induction of β-catenin (β-catenin [3]): no induction
- induction of β-catenin (β-catenin [4]): no induction

Molecule: IGF-1: insulin growth factor-1, a known GSK-3 inhibitor
- infarct size in rat brains [5]: reduced infarct size

B1: rhG-CSF: recombinant human granulocyte colony stimulating factor; a cytokine known to enhance recovery (protein, UniProt P09919 31-207, looked up)
Granulocyte …: TPLGPASSLPQSFLLKCLEQVRKIQGDGAALQEKLVSECATYKLCHPEELVLLGHSLGIPWAPLSSCPSQALQLAGCLSQLHSGLFLYQGLLQALEGISPELGPTLDTLQLDVADFATTIWQQMEELGMAPALQPTQGAMPAFASAFQRRAGGVLVASHLQSFLEVSYRVLRHLAQP
- ANC nadir ([2]; 5-FU + rhG-CSF 50 ug/kg twice daily): 4 days
- WBC nadir (lowest cell count observed) ([2]; 5-FU + rhG-CSF 50 ug/kg twice daily, days 1 through 4): 4 days
- Platelet counts ([2]; 5-FU + rhG-CSF, day 8): soared above the reference ranges
- actual neutrophil counts (ANC) ([2]; 5-FU + rhG-CSF, days 4 and 6): almost non-detectable levels
